Consider 16 molecules from US7989442B2, “Progesterone receptor modulators” (N.V. Organon, priority 2006, dated 2011).

In general, melting point refers to the temperature, or range, at which the solid turns liquid.

The subject of one data set is mature cyclic rats. Nature of the data set: Ovulation inhibition in rat after oral administration (in vivo progestagenic activity). To be noted: 96 h, minimal active dose: average number of ova reduced by 60% relative to placebo, oral administration for 1 complete cycle (4 days), read-out: MAD. Here is the method: Ovulation inhibition after oral administration of the compounds of the invention was studied in mature cyclic rats. Animals were treated with test compound (oral administration) for 1 complete cycle (4 days, from oestrus to pro-oestrus) and the number of ova in the oviduct was microscopically assessed at autopsy in the morning of the next (expected) oestrus. The average number of ova per rat was calculated; the minimal active dose (MAD) is defined as the level at which the average number of ova is reduced by 60% relative to placebo-treated animals.
Regarding `CC(=O)N[C@H]1CCCN2c3c(ccc(Cl)c3Cl)Oc3ccccc3[C@H]12` [example 47 of WO03/ 084963, reference compound], the minimal effective dose is more than 4 mg/kg. Same read-out and setting: with `N#Cc1ccc2c(c1)N1CCC[C@H](NC(=O)C(F)(F)F)[C@H]1c1ccccc1O2` [eutomer of example 63 of WO03/ 084963, reference compound] the figure was approximately 4 mg/kg; with `N#Cc1cc(F)cc2c1N1CCC[C@H](NC(=O)C(F)(F)F)[C@H]1c1ccccc1O2` [eutomer of example 58 of WO03/ 084963, reference compound], 0.38 mg/kg. On the same count and under the same terms, with `N#Cc1cc2c(cc1F)Oc1ccccc1[C@@H]1[C@@H](NC(=O)C(F)(F)F)CCCN21` (stereo in doubt) [Example 2, (−)-(cis)-N-(7-cyano-8-fluoro-1,3,4,14b-tetrahydro-2H-dibenzo [b,f]pyrido[1,2-d][1,4]oxazepin-1-yl)-2,2,2-trifluoroacetamide] the figure was 0.014 mg/kg; with `C=Cc1cccc2c1N1CCC[C@H](NC(=O)C(F)(F)F)[C@H]1c1ccccc1O2` [eutomer of example 54 of WO03/ 084963, reference compound], more than 4 mg/kg; with `N#Cc1c(F)cc2c(c1Cl)N1CCC[C@H](NC(=O)C(F)(F)F)[C@H]1c1c(F)cccc1O2` (stereo in doubt) [Example 9, (−)-(cis)-N-(6-chloro-7-cyano-8,14-difluoro-1,3,4,14b-tetrahydro-2H-dibenzo [b,f]pyrido[1,2-d][1,4]oxazepin-1-yl)-2,2,2-trifluoroacetamide], less than 0.02 mg/kg. On to `N#Cc1c(F)cc2c(c1Cl)N1CCC[C@H](NC(=O)C(F)(F)F)[C@H]1c1ccccc1O2` (stereo in doubt) [Example 3, (−)-(cis)-N-[6-chloro-7-cyano-8-fluoro-1,3,4,14b-tetrahydro-2H-dibenzo [b,f]pyrido[1,2-d][1,4]oxazepin-1-yl]-2,2,2-trifluoroacetamide], for which the minimal effective dose was 0.08 mg/kg. Same read-out and setting: under `N#Cc1c(F)cc2c(c1Cl)N1CCC[C@H](NC(=O)C(F)(F)F)[C@H]1c1ccc(F)cc1O2` (stereo in doubt) [Example 5, (−)-(cis)-N-(6-chloro-7-cyano-8,12-difluoro-1,3,4,14b-tetrahydro-2H-dibenzo [b,f]pyrido[1,2-d][1,4]oxazepin-1-yl)-2,2,2-trifluoroacetamide] stands not above 0.025 mg/kg; under `CC(=O)N[C@H]1CCCN2c3c(cc(F)c(C#N)c3Cl)Oc3cccc(F)c3[C@H]12` (stereo in doubt) [Example 6, (−)-(cis)-N-(6-chloro-7-cyano-8,14-difluoro-1,3,4,14b-tetrahydro-2H-dibenzo [b,f]pyrido[1,2-d][1,4]oxazepin-1-yl)acetamide], less than 0.02 mg/kg; under `CC(=O)c1cc(F)cc2c1N1CCC[C@H](NC(=O)C(F)(F)F)[C@H]1c1ccccc1O2` [example 57 of WO03/ 084963, reference compound], more than 4 mg/kg. On to `N#Cc1c(F)cc2c(c1Cl)N1CCC[C@H](NC(=O)C(F)(F)F)[C@H]1c1cccc(F)c1O2` (stereo in doubt) [Example 7, (−)-(cis)-N-(6-chloro-7-cyano-8,11-difluoro-1,3,4,14b-tetrahydro-2H-dibenzo [b,f]pyrido[1,2-d][1,4]oxazepin-1-yl)-2,2,2-trifluoroacetamide], for which the minimal effective dose was 0.025 mg/kg. Same read-out and setting: under `N#Cc1cc2c(cc1F)Oc1cccc(F)c1[C@@H]1[C@@H](NC(=O)C(F)(F)F)CCCN21` (stereo in doubt) [Example 8, (−)-(cis)-N-(7-cyano-8,14-difluoro-1,3,4,14b-tetrahydro-2H-dibenzo [b,f]pyrido[1,2-d][1,4]oxazepin-1-yl)-2,2,2-trifluoroacetamide] stands 0.01 mg/kg; under `CC(=O)c1cccc2c1N1CCC[C@H](NC(=O)C(F)(F)F)[C@H]1c1ccccc1O2` [eutomer of example 52 of WO03/ 084963, reference compound], more than 4 mg/kg.

Regarding `Cc1cc(F)cc2c1N1CCC[C@H](NC(=O)C(F)(F)F)[C@H]1c1ccccc1O2` [example 60 of WO03/ 084963, reference compound], the minimal effective dose was approximately 1 mg/kg. As for `N#Cc1c(F)cc2c(c1C#N)N1CCC[C@H](NC(=O)C(F)(F)F)[C@H]1c1ccccc1O2` (stereo in doubt) [Example 4, (−)-(cis)-N-(6,7-dicyano-8-fluoro-1,3,4,14b-tetrahydro-2H-dibenzo [b,f]pyrido[1,2-d][1,4]oxazepin-1-yl)-2,2,2-trifluoroacetamide], the minimal effective dose was determined as 0.02 mg/kg. Same read-out and setting: under `C=Cc1cc(F)cc2c1N1CCC[C@H](NC(=O)C(F)(F)F)[C@H]1c1ccccc1O2` [example 59 of WO03/ 084963, reference compound] stands more than 4 mg/kg.

Tested on in a further data set: not given
Assay: not given
Conditions: not given
`N#Cc1c(F)cc2c(c1Cl)N1CCC[C@H](NC(=O)C(F)(F)F)[C@H]1c1ccc(F)cc1O2` (stereo in doubt) [Example 5, (−)-(cis)-N-(6-chloro-7-cyano-8,12-difluoro-1,3,4,14b-tetrahydro-2H-dibenzo [b,f]pyrido[1,2-d][1,4]oxazepin-1-yl)-2,2,2-trifluoroacetamide] gave a melting point of 174 to 175 °C.
